# Experimental data published in the NIST ThermoML archive (doi:10.1007/s10765-007-0346-0).
# ± gives the expanded uncertainty stated by the source.
# Tests used:
# [1] = xn = mol fraction of the nth substance listed; settings: 101 kPa, Liquid, Capillary tube (Ostwald / Ubbelohde) method
# [2] = 101.33 kPa, Liquid, Capillary tube (Ostwald / Ubbelohde) method
smiles,measurement,setting,value
CCC(C)CC [3-methylpentane] + COC(C)(C)C,kinematic viscosity,"[1]; 283.15 K, x2 = 0.048",4.915e-07 ± 4.2e-09 m2/s
same,kinematic viscosity,"[1]; 283.15 K, x2 = 0.0967",4.906e-07 ± 4.2e-09 m2/s
same,kinematic viscosity,"[1]; 283.15 K, x2 = 0.1961",4.893e-07 ± 4.1e-09 m2/s
same,kinematic viscosity,"[1]; 283.15 K, x2 = 0.2982",4.895e-07 ± 4e-09 m2/s
same,kinematic viscosity,"[1]; 283.15 K, x2 = 0.3995",4.906e-07 ± 3.9e-09 m2/s
same,kinematic viscosity,"[1]; 283.15 K, x2 = 0.4983",4.923e-07 ± 3.9e-09 m2/s
same,kinematic viscosity,"[1]; 283.15 K, x2 = 0.5992",4.954e-07 ± 3.8e-09 m2/s
same,kinematic viscosity,"[1]; 283.15 K, x2 = 0.6984",4.995e-07 ± 3.8e-09 m2/s
same,kinematic viscosity,"[1]; 283.15 K, x2 = 0.7978",5.048e-07 ± 3.8e-09 m2/s
same,kinematic viscosity,"[1]; 283.15 K, x2 = 0.8996",5.113e-07 ± 3.8e-09 m2/s
same,kinematic viscosity,"[1]; 283.15 K, x2 = 0.9491",5.145e-07 ± 3.8e-09 m2/s
same,kinematic viscosity,"[1]; 298.15 K, x2 = 0.048",4.361e-07 ± 3.8e-09 m2/s
same,kinematic viscosity,"[1]; 298.15 K, x2 = 0.0967",4.357e-07 ± 3.8e-09 m2/s
same,kinematic viscosity,"[1]; 298.15 K, x2 = 0.1961",4.348e-07 ± 3.7e-09 m2/s
same,kinematic viscosity,"[1]; 298.15 K, x2 = 0.2982",4.347e-07 ± 3.6e-09 m2/s
same,kinematic viscosity,"[1]; 298.15 K, x2 = 0.3995",4.351e-07 ± 3.6e-09 m2/s
same,kinematic viscosity,"[1]; 298.15 K, x2 = 0.4983",4.361e-07 ± 3.5e-09 m2/s
same,kinematic viscosity,"[1]; 298.15 K, x2 = 0.5992",4.379e-07 ± 3.5e-09 m2/s
same,kinematic viscosity,"[1]; 298.15 K, x2 = 0.6984",4.406e-07 ± 3.4e-09 m2/s
same,kinematic viscosity,"[1]; 298.15 K, x2 = 0.7978",4.435e-07 ± 3.4e-09 m2/s
same,kinematic viscosity,"[1]; 298.15 K, x2 = 0.8996",4.478e-07 ± 3.4e-09 m2/s
same,kinematic viscosity,"[1]; 298.15 K, x2 = 0.9491",4.502e-07 ± 3.4e-09 m2/s
same,kinematic viscosity,"[1]; 313.15 K, x2 = 0.048",3.87e-07 ± 3.5e-09 m2/s
same,kinematic viscosity,"[1]; 313.15 K, x2 = 0.0967",3.859e-07 ± 3.4e-09 m2/s
same,kinematic viscosity,"[1]; 313.15 K, x2 = 0.1961",3.843e-07 ± 3.4e-09 m2/s
same,kinematic viscosity,"[1]; 313.15 K, x2 = 0.2982",3.836e-07 ± 3.3e-09 m2/s
same,kinematic viscosity,"[1]; 313.15 K, x2 = 0.3995",3.834e-07 ± 3.2e-09 m2/s
same,kinematic viscosity,"[1]; 313.15 K, x2 = 0.4983",3.836e-07 ± 3.2e-09 m2/s
same,kinematic viscosity,"[1]; 313.15 K, x2 = 0.5992",3.85e-07 ± 3.1e-09 m2/s
same,kinematic viscosity,"[1]; 313.15 K, x2 = 0.6984",3.863e-07 ± 3.1e-09 m2/s
same,kinematic viscosity,"[1]; 313.15 K, x2 = 0.7978",3.888e-07 ± 3.1e-09 m2/s
same,kinematic viscosity,"[1]; 313.15 K, x2 = 0.8996",3.918e-07 ± 3.1e-09 m2/s
same,kinematic viscosity,"[1]; 313.15 K, x2 = 0.9491",3.937e-07 ± 3.1e-09 m2/s
CC(C)OC(C)C [diisopropyl ether],kinematic viscosity,[2]; 283.15 K,4.959e-07 ± 4.3e-09 m2/s
same,kinematic viscosity,[2]; 298.15 K,4.392e-07 ± 3.8e-09 m2/s
same,kinematic viscosity,[2]; 313.15 K,3.861e-07 ± 3.5e-09 m2/s
CC(C)OC(C)C [diisopropyl ether] + CCC(C)CC,kinematic viscosity,"[1]; 283.15 K, x1 = 1",4.959e-07 ± 4.3e-09 m2/s
same,kinematic viscosity,"[1]; 298.15 K, x1 = 1",4.392e-07 ± 3.9e-09 m2/s
same,kinematic viscosity,"[1]; 313.15 K, x1 = 1",3.861e-07 ± 3.5e-09 m2/s
CC(C)OC(C)C [diisopropyl ether] + CCCCCC,kinematic viscosity,"[1]; 283.15 K, x1 = 0.0523",5.094e-07 ± 4.4e-09 m2/s
same,kinematic viscosity,"[1]; 283.15 K, x1 = 0.0915",5.076e-07 ± 4.4e-09 m2/s
same,kinematic viscosity,"[1]; 283.15 K, x1 = 0.189",5.031e-07 ± 4.4e-09 m2/s
same,kinematic viscosity,"[1]; 283.15 K, x1 = 0.3016",4.99e-07 ± 4.3e-09 m2/s
same,kinematic viscosity,"[1]; 283.15 K, x1 = 0.398",4.963e-07 ± 4.3e-09 m2/s
same,kinematic viscosity,"[1]; 283.15 K, x1 = 0.4998",4.944e-07 ± 4.3e-09 m2/s
same,kinematic viscosity,"[1]; 283.15 K, x1 = 0.6007",4.931e-07 ± 4.3e-09 m2/s
same,kinematic viscosity,"[1]; 283.15 K, x1 = 0.6975",4.932e-07 ± 4.3e-09 m2/s
same,kinematic viscosity,"[1]; 283.15 K, x1 = 0.7976",4.934e-07 ± 4.3e-09 m2/s
same,kinematic viscosity,"[1]; 283.15 K, x1 = 0.8959",4.945e-07 ± 4.3e-09 m2/s
same,kinematic viscosity,"[1]; 283.15 K, x1 = 0.9432",4.953e-07 ± 4.3e-09 m2/s
same,kinematic viscosity,"[1]; 298.15 K, x1 = 0.0523",4.477e-07 ± 4e-09 m2/s
same,kinematic viscosity,"[1]; 298.15 K, x1 = 0.0915",4.467e-07 ± 4e-09 m2/s
same,kinematic viscosity,"[1]; 298.15 K, x1 = 0.189",4.446e-07 ± 3.9e-09 m2/s
same,kinematic viscosity,"[1]; 298.15 K, x1 = 0.3016",4.426e-07 ± 3.9e-09 m2/s
same,kinematic viscosity,"[1]; 298.15 K, x1 = 0.398",4.409e-07 ± 3.9e-09 m2/s
same,kinematic viscosity,"[1]; 298.15 K, x1 = 0.4998",4.397e-07 ± 3.9e-09 m2/s
same,kinematic viscosity,"[1]; 298.15 K, x1 = 0.6007",4.383e-07 ± 3.9e-09 m2/s
same,kinematic viscosity,"[1]; 298.15 K, x1 = 0.6975",4.381e-07 ± 3.9e-09 m2/s
same,kinematic viscosity,"[1]; 298.15 K, x1 = 0.7976",4.381e-07 ± 3.9e-09 m2/s
same,kinematic viscosity,"[1]; 298.15 K, x1 = 0.8959",4.386e-07 ± 3.9e-09 m2/s
same,kinematic viscosity,"[1]; 298.15 K, x1 = 0.9432",4.385e-07 ± 3.9e-09 m2/s
same,kinematic viscosity,"[1]; 313.15 K, x1 = 0.0523",4.011e-07 ± 3.6e-09 m2/s
same,kinematic viscosity,"[1]; 313.15 K, x1 = 0.0915",3.994e-07 ± 3.6e-09 m2/s
same,kinematic viscosity,"[1]; 313.15 K, x1 = 0.189",3.961e-07 ± 3.6e-09 m2/s
same,kinematic viscosity,"[1]; 313.15 K, x1 = 0.3016",3.929e-07 ± 3.6e-09 m2/s
same,kinematic viscosity,"[1]; 313.15 K, x1 = 0.398",3.907e-07 ± 3.6e-09 m2/s
same,kinematic viscosity,"[1]; 313.15 K, x1 = 0.4998",3.889e-07 ± 3.5e-09 m2/s
same,kinematic viscosity,"[1]; 313.15 K, x1 = 0.6007",3.874e-07 ± 3.5e-09 m2/s
same,kinematic viscosity,"[1]; 313.15 K, x1 = 0.6975",3.866e-07 ± 3.5e-09 m2/s
same,kinematic viscosity,"[1]; 313.15 K, x1 = 0.7976",3.859e-07 ± 3.5e-09 m2/s
same,kinematic viscosity,"[1]; 313.15 K, x1 = 0.8959",3.856e-07 ± 3.5e-09 m2/s
same,kinematic viscosity,"[1]; 313.15 K, x1 = 0.9432",3.86e-07 ± 3.5e-09 m2/s
CC(C)OC(C)C [diisopropyl ether] + CCCCCCC,kinematic viscosity,"[1]; 283.15 K, x1 = 0.0508",6.578e-07 ± 5.6e-09 m2/s
same,kinematic viscosity,"[1]; 283.15 K, x1 = 0.1002",6.473e-07 ± 5.5e-09 m2/s
same,kinematic viscosity,"[1]; 283.15 K, x1 = 0.1986",6.265e-07 ± 5.3e-09 m2/s
same,kinematic viscosity,"[1]; 283.15 K, x1 = 0.2973",6.068e-07 ± 5.2e-09 m2/s
same,kinematic viscosity,"[1]; 283.15 K, x1 = 0.3992",5.88e-07 ± 5e-09 m2/s
same,kinematic viscosity,"[1]; 283.15 K, x1 = 0.4991",5.693e-07 ± 4.9e-09 m2/s
same,kinematic viscosity,"[1]; 283.15 K, x1 = 0.5979",5.533e-07 ± 4.8e-09 m2/s
same,kinematic viscosity,"[1]; 283.15 K, x1 = 0.7009",5.372e-07 ± 4.6e-09 m2/s
same,kinematic viscosity,"[1]; 283.15 K, x1 = 0.8008",5.215e-07 ± 4.5e-09 m2/s
same,kinematic viscosity,"[1]; 283.15 K, x1 = 0.8954",5.091e-07 ± 4.4e-09 m2/s
same,kinematic viscosity,"[1]; 283.15 K, x1 = 0.95",5.016e-07 ± 4.4e-09 m2/s
same,kinematic viscosity,"[1]; 298.15 K, x1 = 0.0508",5.658e-07 ± 4.9e-09 m2/s
same,kinematic viscosity,"[1]; 298.15 K, x1 = 0.1002",5.567e-07 ± 4.8e-09 m2/s
same,kinematic viscosity,"[1]; 298.15 K, x1 = 0.1986",5.387e-07 ± 4.7e-09 m2/s
same,kinematic viscosity,"[1]; 298.15 K, x1 = 0.2973",5.218e-07 ± 4.5e-09 m2/s
same,kinematic viscosity,"[1]; 298.15 K, x1 = 0.3992",5.055e-07 ± 4.4e-09 m2/s
same,kinematic viscosity,"[1]; 298.15 K, x1 = 0.4991",4.9e-07 ± 4.3e-09 m2/s
same,kinematic viscosity,"[1]; 298.15 K, x1 = 0.5979",4.779e-07 ± 4.2e-09 m2/s
same,kinematic viscosity,"[1]; 298.15 K, x1 = 0.7009",4.679e-07 ± 4.1e-09 m2/s
same,kinematic viscosity,"[1]; 298.15 K, x1 = 0.8008",4.588e-07 ± 4.1e-09 m2/s
same,kinematic viscosity,"[1]; 298.15 K, x1 = 0.8954",4.496e-07 ± 4e-09 m2/s
same,kinematic viscosity,"[1]; 298.15 K, x1 = 0.95",4.443e-07 ± 3.9e-09 m2/s
same,kinematic viscosity,"[1]; 313.15 K, x1 = 0.0508",4.91e-07 ± 4.3e-09 m2/s
same,kinematic viscosity,"[1]; 313.15 K, x1 = 0.1002",4.831e-07 ± 4.3e-09 m2/s
same,kinematic viscosity,"[1]; 313.15 K, x1 = 0.1986",4.719e-07 ± 4.2e-09 m2/s
same,kinematic viscosity,"[1]; 313.15 K, x1 = 0.2973",4.61e-07 ± 4.1e-09 m2/s
same,kinematic viscosity,"[1]; 313.15 K, x1 = 0.3992",4.498e-07 ± 4e-09 m2/s
same,kinematic viscosity,"[1]; 313.15 K, x1 = 0.4991",4.385e-07 ± 3.9e-09 m2/s
same,kinematic viscosity,"[1]; 313.15 K, x1 = 0.5979",4.273e-07 ± 3.8e-09 m2/s
same,kinematic viscosity,"[1]; 313.15 K, x1 = 0.7009",4.166e-07 ± 3.7e-09 m2/s
same,kinematic viscosity,"[1]; 313.15 K, x1 = 0.8008",4.058e-07 ± 3.7e-09 m2/s
same,kinematic viscosity,"[1]; 313.15 K, x1 = 0.8954",3.96e-07 ± 3.6e-09 m2/s
same,kinematic viscosity,"[1]; 313.15 K, x1 = 0.95",3.909e-07 ± 3.6e-09 m2/s
CCCCCCC [heptane],kinematic viscosity,[2]; 283.15 K,6.697e-07 ± 5.5e-09 m2/s
same,kinematic viscosity,[2]; 298.15 K,5.754e-07 ± 4.8e-09 m2/s
same,kinematic viscosity,[2]; 313.15 K,4.986e-07 ± 4.3e-09 m2/s
CCCCCCC [heptane] + CC(C)OC(C)C,kinematic viscosity,"[1]; 283.15 K, x2 = 0",6.697e-07 ± 5.7e-09 m2/s
same,kinematic viscosity,"[1]; 298.15 K, x2 = 0",5.754e-07 ± 5e-09 m2/s
same,kinematic viscosity,"[1]; 313.15 K, x2 = 0",4.986e-07 ± 4.4e-09 m2/s
CCCCCC [hexane],kinematic viscosity,[2]; 283.15 K,5.125e-07 ± 4.4e-09 m2/s
same,kinematic viscosity,[2]; 298.15 K,4.493e-07 ± 3.9e-09 m2/s
same,kinematic viscosity,[2]; 313.15 K,4.039e-07 ± 3.6e-09 m2/s
CCCCCC [hexane] + CC(C)OC(C)C,kinematic viscosity,"[1]; 283.15 K, x2 = 0",5.125e-07 ± 4.5e-09 m2/s
same,kinematic viscosity,"[1]; 298.15 K, x2 = 0",4.493e-07 ± 4e-09 m2/s
same,kinematic viscosity,"[1]; 313.15 K, x2 = 0",4.039e-07 ± 3.6e-09 m2/s
